Results from patent publication US12577211B2, “Probenecid compounds for the treatment of inflammasome-mediated lung disease” (Bacainn Biotherapeutics, Ltd., priority 2020, dated 2026).

Legend:
[1] = tested on: NLRP1; assay: NLRP1 (L18-MDP)-induced inflammasome activation in immortalized BMDMs, secreted IL-1β ELISA (Example 10); assay type: cell-based; conditions: 20, 100, 350 μM; L18-MDP 100 μg/mL, 16 hours
[2] = target: T1, NLRP3 inflammasome (Mus musculus, UniProt Q8R4B8); assay: IL-1β secretion (ELISA) in LPS-primed iBMDMs stimulated with silica or nigericin; assay type: cell-based, murine; conditions: LPS 100 ng/mL primed iBMDMs; silica 250 μg/mL or nigericin 6 μM; compound 300, 150, 30, 3 μM
T1 construct: Immortalized wild-type C57BL/6 bone-marrow derived macrophages (iBMDMs); endogenous in cells; host or cells: immortalized wild-type C57BL/6 bone-marrow derived macrophages (iBMDMs), LPS-primed
T1 sequence (Q8R4B8 whole entry): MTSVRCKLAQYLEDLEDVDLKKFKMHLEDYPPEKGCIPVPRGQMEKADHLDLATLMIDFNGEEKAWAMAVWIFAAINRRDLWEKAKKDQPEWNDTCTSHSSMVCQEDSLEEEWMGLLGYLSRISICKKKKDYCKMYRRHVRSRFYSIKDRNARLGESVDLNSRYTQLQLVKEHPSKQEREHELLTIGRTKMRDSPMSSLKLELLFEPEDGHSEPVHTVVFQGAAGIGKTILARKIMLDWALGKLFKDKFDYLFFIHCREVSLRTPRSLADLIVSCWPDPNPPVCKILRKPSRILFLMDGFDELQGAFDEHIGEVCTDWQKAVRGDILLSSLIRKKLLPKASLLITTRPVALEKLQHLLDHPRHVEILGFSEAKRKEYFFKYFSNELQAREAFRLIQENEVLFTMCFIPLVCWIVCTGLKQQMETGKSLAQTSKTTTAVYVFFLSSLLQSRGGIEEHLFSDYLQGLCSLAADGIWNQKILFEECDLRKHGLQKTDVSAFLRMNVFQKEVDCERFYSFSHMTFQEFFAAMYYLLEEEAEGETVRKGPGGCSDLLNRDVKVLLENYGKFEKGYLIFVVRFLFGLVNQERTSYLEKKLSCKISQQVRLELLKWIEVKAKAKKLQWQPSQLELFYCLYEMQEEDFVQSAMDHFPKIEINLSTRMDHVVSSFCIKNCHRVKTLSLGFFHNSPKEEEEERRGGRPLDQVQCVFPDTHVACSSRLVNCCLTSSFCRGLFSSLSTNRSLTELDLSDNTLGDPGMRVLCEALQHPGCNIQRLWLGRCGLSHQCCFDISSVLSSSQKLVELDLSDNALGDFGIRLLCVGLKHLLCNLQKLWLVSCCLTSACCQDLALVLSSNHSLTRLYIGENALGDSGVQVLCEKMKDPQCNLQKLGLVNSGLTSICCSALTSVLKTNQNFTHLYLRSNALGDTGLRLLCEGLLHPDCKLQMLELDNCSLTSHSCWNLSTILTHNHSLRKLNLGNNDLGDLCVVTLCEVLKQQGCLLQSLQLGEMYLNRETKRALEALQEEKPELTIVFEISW
Experimental: In vitro stimulation of murine macrophages. Immortalized wild-type C57BL/6 bone-marrow derived macrophages (iBMDMs) were grown in DMEM supplemented with 10% heat inactivated FBS and 2 mM glutamine. iBMDMs were seeded in 96-well plates 24 hours prior incubation with lipopolysaccharide (LPS; 100 ng/mL) for 3 hours. Cells were then incubated with a control probenecid compound (probenecid dissolved in DMSO (Prob/D), probenecid dissolved in PBS (Prob/P)) or one of the probenecid analogs of the present technology (BT032, BT132, BT133, BT134, BT135, BT136, BT137, BT138, BT139, or BT140) at concentrations of 300 μM, 150 μM, 30 μM, or 3 μM 1 hour prior to stimulation with NLRP3 inflammasome activators, silica (250 μg/mL) or nigericin (6 μM). After an additional 6 hours, cell supernatants were collected and levels of IL-1β were quantified by ELISA. These experiments were run in triplicate three times.

[3] = tested on: ASC specks (NLRP3 inflammasome complex); assay: Nigericin-induced ASC speck formation in ASC-cerulean/NLRP3 macrophages; assay type: cell-based; conditions: 350 μM, 60 mins before nigericin 3 μM for 90 mins
[4] = target: T2, AIM2 (Mus musculus, UniProt Q91VJ1); assay: AIM2 (poly dA:dT)-mediated inflammasome activation, secreted IL-1β ELISA in immortalized BMDMs; assay type: cell-based, murine; conditions: BT032 20, 100 μM
T2 sequence (Q91VJ1 1-354): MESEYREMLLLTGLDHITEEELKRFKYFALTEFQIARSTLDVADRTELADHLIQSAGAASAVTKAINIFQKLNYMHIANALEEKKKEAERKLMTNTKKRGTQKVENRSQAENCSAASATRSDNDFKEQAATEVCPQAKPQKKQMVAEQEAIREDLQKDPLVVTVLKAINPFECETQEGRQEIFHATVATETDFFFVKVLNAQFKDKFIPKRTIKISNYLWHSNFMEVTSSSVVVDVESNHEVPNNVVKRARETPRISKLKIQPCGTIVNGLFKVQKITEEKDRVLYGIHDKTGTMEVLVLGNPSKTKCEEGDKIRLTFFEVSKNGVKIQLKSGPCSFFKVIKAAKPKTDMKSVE

[5] = target: NLRP3 (Mus musculus, UniProt Q8R4B8); assay: NLRP3-mediated inflammasome activity, secreted IL-1β ELISA in LPS-primed immortalized BMDMs (nigericin, MSU, silica)
NLRP3, sequence (Q8R4B8 whole entry): as the sequence (Q8R4B8 whole entry) above

[6] = tested on: HKx31 (H3N2) influenza A virus; assay type: in vivo, C57BL/6 mice
[7] = target: T3, NLRP1 (Homo sapiens, UniProt Q9C000); assay: poly I:C NLRP1 activation in primary human bronchial epithelial cells, secreted IL-1β ELISA; assay type: cell-based; conditions: 20, 100, 350 μM
T3 construct: Primary bronchial epithelial cells (PBEC) were obtained from bronchial brushings; endogenous in cells; host or cells: primary human bronchial epithelial cells (PBEC) from bronchial brushings
T3 sequence (Q9C000 1-1212 limits assumed): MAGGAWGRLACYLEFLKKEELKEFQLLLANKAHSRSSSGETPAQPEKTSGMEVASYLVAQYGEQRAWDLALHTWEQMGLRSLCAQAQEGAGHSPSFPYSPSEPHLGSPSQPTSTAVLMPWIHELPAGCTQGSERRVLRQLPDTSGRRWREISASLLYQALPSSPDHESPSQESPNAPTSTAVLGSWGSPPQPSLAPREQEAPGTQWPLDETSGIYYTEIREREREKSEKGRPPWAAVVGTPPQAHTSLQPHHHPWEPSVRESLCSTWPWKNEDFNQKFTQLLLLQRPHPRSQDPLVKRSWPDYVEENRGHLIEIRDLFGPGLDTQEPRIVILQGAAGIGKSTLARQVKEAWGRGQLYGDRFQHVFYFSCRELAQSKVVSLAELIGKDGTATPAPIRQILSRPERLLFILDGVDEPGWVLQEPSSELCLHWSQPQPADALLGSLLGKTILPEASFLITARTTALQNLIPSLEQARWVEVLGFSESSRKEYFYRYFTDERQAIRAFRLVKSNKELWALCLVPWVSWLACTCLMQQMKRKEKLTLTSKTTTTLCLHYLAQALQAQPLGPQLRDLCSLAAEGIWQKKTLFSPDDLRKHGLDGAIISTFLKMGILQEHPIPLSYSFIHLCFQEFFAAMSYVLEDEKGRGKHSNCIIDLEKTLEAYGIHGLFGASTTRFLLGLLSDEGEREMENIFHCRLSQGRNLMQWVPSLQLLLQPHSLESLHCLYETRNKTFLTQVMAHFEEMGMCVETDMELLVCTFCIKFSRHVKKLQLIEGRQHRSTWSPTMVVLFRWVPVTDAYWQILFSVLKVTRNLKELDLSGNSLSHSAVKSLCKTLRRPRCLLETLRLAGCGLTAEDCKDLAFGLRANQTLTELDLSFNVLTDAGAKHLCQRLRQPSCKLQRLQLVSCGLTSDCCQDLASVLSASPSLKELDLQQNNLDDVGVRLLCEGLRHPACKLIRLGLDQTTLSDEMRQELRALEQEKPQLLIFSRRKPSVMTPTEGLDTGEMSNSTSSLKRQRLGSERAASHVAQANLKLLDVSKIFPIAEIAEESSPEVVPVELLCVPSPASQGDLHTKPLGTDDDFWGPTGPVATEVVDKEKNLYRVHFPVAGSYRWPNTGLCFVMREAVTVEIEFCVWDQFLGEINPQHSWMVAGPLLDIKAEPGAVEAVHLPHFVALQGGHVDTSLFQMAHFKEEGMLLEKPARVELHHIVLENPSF
T3 sequence (Q9C000 1213-1473 limits assumed): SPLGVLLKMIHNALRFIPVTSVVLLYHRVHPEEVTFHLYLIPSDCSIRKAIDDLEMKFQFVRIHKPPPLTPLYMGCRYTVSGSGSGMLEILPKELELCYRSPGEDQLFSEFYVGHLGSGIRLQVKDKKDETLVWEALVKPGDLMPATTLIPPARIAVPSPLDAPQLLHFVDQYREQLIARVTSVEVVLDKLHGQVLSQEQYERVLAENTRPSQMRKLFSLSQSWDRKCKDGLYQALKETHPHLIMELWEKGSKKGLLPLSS
Experimental: Methods. Primary bronchial epithelial cells (PBEC) were obtained from bronchial brushings and cultured under submerged conditions on collagen-coated flasks in supplemented bronchial epithelial growth medium. PBECs were seeded at 2.5×10^5/ml cells in collagen-coated 96 well plates overnight.

[8] = tested on: non-canonical inflammasome; assay: Non-canonical inflammasome activity (LPS (B4)), secreted IL-1β ELISA in immortalized BMDMs; assay type: cell-based, murine; conditions: BT032 20, 100 μM
[9] = tested on: NLRP1; assay: NLRP1-mediated inflammasome activity, secreted IL-1β ELISA in immortalized BMDMs (L18-MDP); assay type: cell-based, murine; conditions: for NLRP1 (L18-MDP)-induced inflammasome activation: BT032 20, 100 μM, MCC950 5 μM
[10] = target: NLRC4 (Mus musculus, UniProt Q3UP24); assay: NLRC4 (Flagellin)-mediated inflammasome activation, secreted IL-1β ELISA in immortalized BMDMs; assay type: cell-based, murine; conditions: BT032 20, 100 μM
NLRC4, sequence (Q3UP24 whole entry): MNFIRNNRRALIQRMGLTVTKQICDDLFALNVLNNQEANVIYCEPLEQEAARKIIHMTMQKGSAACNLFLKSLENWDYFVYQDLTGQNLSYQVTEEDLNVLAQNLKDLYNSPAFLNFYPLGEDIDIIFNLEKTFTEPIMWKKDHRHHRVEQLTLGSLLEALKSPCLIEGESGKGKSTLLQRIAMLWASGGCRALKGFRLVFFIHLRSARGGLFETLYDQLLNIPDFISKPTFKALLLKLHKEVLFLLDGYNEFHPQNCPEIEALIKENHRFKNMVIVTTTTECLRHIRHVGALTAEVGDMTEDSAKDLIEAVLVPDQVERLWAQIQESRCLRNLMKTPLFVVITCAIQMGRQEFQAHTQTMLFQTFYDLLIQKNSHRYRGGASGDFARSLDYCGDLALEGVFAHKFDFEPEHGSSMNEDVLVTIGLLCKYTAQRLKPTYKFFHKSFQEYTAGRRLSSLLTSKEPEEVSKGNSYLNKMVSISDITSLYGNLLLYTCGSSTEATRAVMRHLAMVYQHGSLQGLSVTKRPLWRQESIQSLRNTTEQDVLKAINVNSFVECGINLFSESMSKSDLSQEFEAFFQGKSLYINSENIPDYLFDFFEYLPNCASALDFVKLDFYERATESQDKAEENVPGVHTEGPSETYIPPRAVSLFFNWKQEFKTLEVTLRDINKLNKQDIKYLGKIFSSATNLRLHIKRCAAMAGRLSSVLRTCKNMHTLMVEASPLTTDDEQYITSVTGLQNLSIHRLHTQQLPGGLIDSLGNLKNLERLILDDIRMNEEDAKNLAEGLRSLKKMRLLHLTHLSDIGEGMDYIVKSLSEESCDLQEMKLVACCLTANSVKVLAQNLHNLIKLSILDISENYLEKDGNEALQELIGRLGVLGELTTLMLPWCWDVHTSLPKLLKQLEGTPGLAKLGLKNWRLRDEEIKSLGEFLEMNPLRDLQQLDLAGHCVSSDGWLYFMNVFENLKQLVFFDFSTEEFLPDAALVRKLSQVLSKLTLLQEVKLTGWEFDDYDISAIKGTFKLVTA

CCCN(CCC)S(=O)(=O)c1ccc(-c2nc(CCCC(=O)O)cs2)cc1 [BT136, 4-(2-(4-(N,N-dipropylsulfamoyl)phenyl)thiazol-4-yl)butanoic acid]
NLRP1 (L18-MDP)-induced inflammasome activation (secreted IL-1β) [1]: dose-dependently inhibited
potency in reducing IL-1β secretion compared with control probenecid compounds [2]: more potent than the control probenecid compounds

CCCN(CCC)S(=O)(=O)c1ccc(N2CCC(CCCC(=O)O)CC2)cc1 [BT135, 4-(1-(4-(N,N-dipropylsulfamoyl)-phenyl)piperidin-4-yl)butanoic acid]
NLRP1 (L18-MDP)-induced inflammasome activation (secreted IL-1β) [1]: dose-dependently inhibited

CCCN(CCC)S(=O)(=O)c1ccc(-c2ccc(CCCC(=O)O)cc2)cc1 [BT032, 4-(4′-(N,N-dipropylsulfamoyl)-[1,1′-biphenyl]-4-yl)butanoic acid]
ASC specks in cells [3]: substantially reduced ASC specks
AIM2 (poly dA:dT)-mediated inflammasome activation [4]: no effect
IC50 [5]: 30 µM
NLRP3 (Nigericin, MSU, Silica)-induced inflammasome activation ([5]; BT032 20, 100 μM, MCC950 5 μM, secreted IL-1β): dose-dependently inhibited
NLRP1 (L18-MDP)-induced inflammasome activation (secreted IL-1β) [1]: dose-dependently inhibited
survival of mice ([6]; […], survival without treatment 5 days): 7-9 days post-infection
pulmonary inflammation and cellular infiltrates in BAL (total cells, alveolar macrophages, neutrophils, Ly6C+ macrophages, dendritic cells, MCP-1) ([6]; mouse, in vivo): reduce hyperinflammation in the airways
poly I:C NLRP1 activation (IL-1β secretion) [7]: inhibited poly I:C NLRP1 activation
non-canonical inflammasome activity (LPS (B4)) [8]: limited impact
NLRP1 (L18-MDP)-induced inflammasome activation [9]: dose-dependently inhibited
IC50 ([9]; L18-MDP 100 μg/mL, drug 3.9-350 μM, read-out: IC50, inhibition of NLRP1-mediated inflammasome activity): 30 µM
potency in reducing IL-1β secretion compared with control probenecid compounds [2]: more potent than the control probenecid compounds
NLRC4 (Flagellin)-mediated inflammasome activation [10]: no effect

CC(C)(O)c1coc(S(=O)(=O)NC(=O)Nc2c3c(cc4c2CCC4)CCC3)c1 [MCC950, reference compound]
NLRP1 (L18-MDP)-induced inflammasome activation [9]: no impact upon NLRP1 activity
